Measurements: patent US9326513B2, “Fungicidal compositions” (Syngenta Participations AG, priority 2011, dated 2016)
Where “and” joins values, the source holds several entries; their conditions need not be identical. Identical values can stand only once. Like-named read-outs stand apart in the source and are kept apart here.

Legend:
Sclerotinia sclerotiorum = Sclerotinia sclerotiorum on oilseed rape, preventive treatment; type: in vivo; details: solo, 1 day preventive, 11 days after application
Excerpt: In the following Tables ‘Activity (%)’ means the assessed experimental activity (% disease control in this test when compared to untreated control leaf disks under the same conditions, which show extensive disease development) and “P” is the expected value calculated (expected) activity according to the COLBY formula (see above). The column headed ‘S?’ indicates whether or not synergy was observed, with ‘y’ meaning that synergy was observed.
Sclerotinia sclerotiorum on Oilseed Rape, Preventive Treatment
The compound activity was tested under 1 day preventive conditions. Oilseed rape plants with 3 unfolded leafs were sprayed with a track sprayer and 200 I/ha spray volume with the test compounds, either solo or in tankmix as shown in the table below.
1 day after application the plants were infested with a solution of Sclerotinia sclerotiorum mycelium. The plants were placed under plastic hoods and high humidity conditions in a climate chamber at 14 h day/10 h night cycle and 15° C. Disease infestation was evaluated visually 11 days after application and average activity calculated in relation to disease severity on untreated check.

Septoria tritici [1] = assay: Septoria tritici (leaf blotch), PDB microtiter plate, visual after 72 hrs; type: cell-based; details: Zymoseptoria tritici, single compound
Septoria tritici [2] = assay: Septoria tritici (leaf blotch), YBG microtiter plate, photometric growth inhibition after 6 days; type: cell-based; details: Zymoseptoria tritici, 144 h, solo
[3] = system: Blumeria graminis f. sp. tritici (Erysiphe graminis f. sp. tritici); assay: Blumeria graminis f. sp. tritici / wheat / leaf disc preventative (powdery mildew on wheat); type: in vivo; details: foliar, compared to untreated control leaf disks, read-out: disease control
How it was run: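 Preventative leaf-disc test: compound (200 ppm) was sprayed onto cv. Kanzler wheat segments, which were dusted with conidia from infected plants 1 day after application. After incubation at 20° C and 60% rh, disease control relative to untreated segments was rated 6-8 days after application.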

[4] = system: Fusarium graminearum and Fusarium culmorum; type: in vivo; details: solo, 200 g a.i./ha; wheat, 1 day preventive, 9 days after application
[5] = system: Puccinia recondita f. sp. tritici; assay: Puccinia recondita f. sp. tritici / wheat / leaf disc preventative (brown rust); type: in vivo; details: foliar, compared to untreated control leaf disks, read-out: disease control
Excerpt: Puccinia recondita f. sp. tritici/Wheat/Leaf Disc Preventative (Brown Rust) Wheat leaf segments cv. Kanzler were placed on agar in multiwell plates (24-well format) and sprayed with the formulated test compound diluted in water. The leaf disks were inoculated with a spore suspension of the fungus 1 day after application.

[6] = system: Phakopsora pachyrhizi (triazole tolerant soybeanrust strain); assay: Phakopsora pachyrhizi on soybean, preventive treatment; type: in vivo; details: solo, soybean leaf discs, 1 day preventive, 11 days after application
Septoria tritici [7] = assay: Septoria tritici on wheat, preventive treatment; type: in vivo; details: solo, wheat Riband, 1 day preventive, 18 days after application
[8] = system: Mycosphaerella arachidis (y. Cercospora arachidicola); assay: Mycosphaerella arachidis (brown leaf spot of groundnut), PDB microtiter plate, visual after 5-6 days; type: cell-based; details: Mycosphaerella arachidis, single compound
Botrytis cinerea = Botrytis cinerea (gray mould), PDB microtiter plate, visual after 72 hrs; type: cell-based; details: Botrytis cinerea; for inhibition at 0.015625 ppm: rate 0.015625 ppm; for inhibition at 0.03125 ppm: rate 0.03125 ppm; for inhibition at 0.03125 ppm / inhibition at 0.0625 ppm: read-out: Activity (%); for inhibition at 0.0625 ppm: rate 0.0625 ppm; for inhibition at 0.25 ppm: rate 0.25 ppm; for inhibition at 0.5 ppm: rate 0.5 ppm; for inhibition at 1 ppm: rate 1 ppm; for inhibition at 2 ppm: rate 2 ppm
[9] = system: Puccinia recondita f. sp. tritici; assay: Puccinia recondita f. sp. tritici / wheat / leaf disc curative (brown rust); type: in vivo; details: foliar, compared to untreated control leaf disks, read-out: disease control
Protocol: Puccinia recondita f. sp. tritici/Wheat/Leaf Disc Curative (Brown Rust) Wheat leaf segments cv. Kanzler are placed on agar in multiwell plates (24-well format). The leaf segments are inoculated with a spore suspension of the fungus. Plates were stored in darkness at 19° C. and 75% rh. The formulated test compound diluted in water was applied 1 day after inoculation.

[10] = system: Monographella nivalis (syn. Microdochium nivale, Fusarium nivale); assay: Monographella nivalis (snow mould, foot rot of cereals), PDB microtiter plate, visual after 72 hrs; type: cell-based; details: Monographella nivalis
[11] = 0.25 ppm, read-out: Activity (%)
[12] = single compound, rate 0.125 ppm

CCN(C)/C=N/c1cc(Br)c(OC2Cc3ccccc3C2)nc1C [Q.062]
50% and 71%: Activity (Septoria tritici [7]; 27 g a.i./ha)
29%: inhibition of growth at 0.078125 ppm (Septoria tritici [2]; rate 0.078125 ppm)
48%: inhibition of growth at 2.5 ppm (Septoria tritici [2]; rate 2.5 ppm)
20%: inhibition at 2 ppm ([10]; applied alone, 2 ppm) | inhibition at 0.25 ppm ([10]; single compound, rate 0.25 ppm)
31%: inhibition of growth at 0.0078125 ppm (Septoria tritici [2]; rate 0.0078125 ppm)
≥ 50%: pest or weed control at 200 ppm [3] | pest or weed control at 200 ppm [5] | pest or weed control at 200 ppm [9]
32%: inhibition of growth at 0.00390625 ppm (Septoria tritici [2]; rate 0.00390625 ppm)
26%: Activity (Sclerotinia sclerotiorum; rate 100 ppm)
64%: inhibition of growth at 5 ppm (Septoria tritici [2]; rate 5 ppm)
70%: inhibition at 1 ppm ([8]; 1 ppm) | inhibition at 2 ppm ([8]; 2 ppm) | inhibition at 1 ppm ([10]; single compound, rate 1 ppm)
39%: inhibition of growth at 0.15625 ppm (Septoria tritici [2]; rate 0.15625 ppm, read-out: Activity)
0%: Activity (Sclerotinia sclerotiorum; rate 25 ppm) | inhibition at 0.00390625 ppm (Septoria tritici [1]; 0.00390625 ppm) | inhibition at 0.0078125 ppm (Septoria tritici [1]; 0.0078125 ppm) | inhibition at 0.015625 ppm (Septoria tritici [1]; 0.015625 ppm) | inhibition at 0.03125 ppm (Septoria tritici [1]; 0.03125 ppm) | inhibition at 0.0625 ppm (Septoria tritici [1]; 0.0625 ppm) | inhibition at 0.125 ppm (Septoria tritici [1]; 0.125 ppm) | inhibition at 0.25 ppm (Septoria tritici [1]; [11]) | inhibition at 0.5 ppm (Septoria tritici [1]; 0.5 ppm) | inhibition at 1 ppm (Septoria tritici [1]; 1 ppm) | inhibition at 2 ppm (Septoria tritici [1]; 2 ppm) | Activity ([6]; rate 0.5 g ai/ha) | inhibition at 0.015625 ppm ([8]; 0.015625 ppm, read-out: Activity (%)) | inhibition at 0.03125 ppm ([8]; 0.03125 ppm, read-out: Activity (%)) | inhibition at 0.0625 ppm ([8]; 0.0625 ppm, read-out: Activity (%)) | inhibition at 0.125 ppm ([8]; 0.125 ppm, read-out: Activity (%)) | inhibition at 0.25 ppm [8, 11] | inhibition at 0.5 ppm ([8]; 0.5 ppm, read-out: Activity (%)) | inhibition at 0.00390625 ppm (Botrytis cinerea; alone, rate 0.00390625 ppm) | inhibition at 0.0078125 ppm (Botrytis cinerea; alone, rate 0.0078125 ppm) | inhibition at 0.015625 ppm (Botrytis cinerea; alone) | inhibition at 0.03125 ppm (Botrytis cinerea; alone) | inhibition at 0.0625 ppm (Botrytis cinerea; alone) | inhibition at 0.1258 ppm (Botrytis cinerea; alone, rate 0.1258 ppm) | inhibition at 0.25 ppm (Botrytis cinerea; alone) | inhibition at 0.5 ppm (Botrytis cinerea; alone) | inhibition at 1 ppm (Botrytis cinerea; alone) | inhibition at 2 ppm (Botrytis cinerea; alone) | inhibition at 0.015625 ppm (Botrytis cinerea; single compound) | inhibition at 0.03125 ppm (Botrytis cinerea; single compound) | inhibition at 0.0625 ppm (Botrytis cinerea; single compound) | inhibition at 0.125 ppm (Botrytis cinerea; [12]) | inhibition at 0.25 ppm (Botrytis cinerea; single compound) | inhibition at 0.5 ppm (Botrytis cinerea; single compound) | inhibition at 1 ppm (Botrytis cinerea; single compound) | inhibition at 2 ppm (Botrytis cinerea; single compound) | inhibition at 0.015625 ppm ([10]; applied alone, 0.015625 ppm) | inhibition at 0.03125 ppm ([10]; applied alone, 0.03125 ppm) | inhibition at 0.0625 ppm ([10]; applied alone, 0.0625 ppm) | inhibition at 0.125 ppm ([10]; applied alone, 0.125 ppm) | inhibition at 0.015625 ppm ([10]; single compound, rate 0.015625 ppm) | inhibition at 0.03125 ppm ([10]; single compound, rate 0.03125 ppm) | inhibition at 0.0625 ppm ([10]; single compound, rate 0.0625 ppm) | inhibition at 0.125 ppm [10, 12]
8% and 6%: Activity (Septoria tritici [7]; 3 g a.i./ha)
13%: Activity ([6]; rate 2 g ai/ha)
37%: inhibition of growth at 0.3125 ppm (Septoria tritici [2]; rate 0.3125 ppm)
17%: Activity [4]
51%: inhibition of growth at 1.25 ppm (Septoria tritici [2]; rate 1.25 ppm)
61%: Activity (Septoria tritici [7]; 81 g a.i./ha)
50%: inhibition at 0.5 ppm ([10]; single compound, rate 0.5 ppm)
2%: Activity (Sclerotinia sclerotiorum; rate 50 ppm) | Activity (Septoria tritici [7]; 1 g a.i./ha)
